In patent US20030219837A1, “Integrin ligand” (priority 2002, published 2003):

B1: alpha6p: 70-kDa, naturally occurring truncated form of the alpha6 integrin (protein)
chain: VNSLPEVLPILNSNEAKTVQTDVHFLKEGCGDDNVCNSNLKLEYKFGTREGNQDKFSYLPIQKGIPELVLKDQKDIALEITVTNSPSDPRNPRKDGDDAHEAKLIATFPDTLTYSAYRELRAFPEKQLSCVANQNGSQADCELGNPFKRNSSVTFYLILSTTEVTFDTTDLDINLKLETTSNQDNLAPITAKAKVVIELLLSVSGVAKPSQVYFGGTVVGEQAMKSEDEVGSLIEYEFRVINLGKPLKNLGTATLNIQWPKEISNGKWLLYLMKVESKGLEQIVCEPHNEINYLKLKESHNSRKKRELPEKQIDDSRKFSLFPERKYQTLNCSVNVRCVNIRCPLRGLDSKASLVLRSRLWNSTFLEEYSKLNYLDILLRASIDVTAAAQNIKLPHAGTQVRVTVFPSKTVAQYSGVAWWIILLAVLAGILMLALLVFLLWKCGFFKRSRYDDSIPRYHAVRIRKEEREIKDEKHMDNLEKKQWITKWNENESYS

Key:
[1] = test system: alpha6p; test: Abundance of alpha6p on DU145H cells with exogenous agents; format: cell-based, human; details: data not shown
[2] = test system: alpha6p integrin protein levels; test: Calcium-induced terminal differentiation assay, Western blot with AA6A; format: cell-based; details: 291 nontransformed mouse keratinocytes, 24 h, dose-dependent (0.04 to 1.4 mM calcium)
Protocol: Cell Lines. All human cell lines were incubated at 37° C. in a humidified atmosphere of 95% air and 5% CO2. Cell lines DU145H, HaCaT, and PC3-N were grown in Iscove's modified Dulbecco's medium (Invitrogen Corporation, Carlsbad, Calif.; formerly Life Technologies, Inc.) plus 10% fetal bovine serum. Cell lines MCF-7, PC3-ATCC, LnCap, and H69 were grown in Dulbecco's modified Eagle's medium (Invitrogen Corporation, Carlsbad, Calif.; formerly Life Technologies, Inc.) plus 10% fetal bovine serum. SW480 cells were grown in super medium (Dulbecco's modified Eagle's medium plus 5% nonessential amino acids, 5% L-glutamine, 5% sodium pyruvate, 10% fetal bovine serum). Normal prostate cells, PrEC, were grown in PrEGM bullet kit medium (Clonetics, San Diego, Calif.). […]
Mouse 291 normal keratinocyte terminal differentiation can be induced by calcium. […] The presence of alpha6 and alpha6p integrins in normal 291 mouse keratinocytes was determined using whole cell lysates followed by Western blot analysis using anti-alpha6 integrin antibody, AA6A (FIG. 10A). […] The alpha6 and alpha6p integrin protein bands were quantitated using Scion Image (Cress (2000) BioTechniques 29:776-781), and the results were graphed (FIG. 10B). […]

[3] = test system: DU145H cells; test: Surface half-life by biotinylation strategy; format: cell-based, human
Protocol: Surface Biotinylation of Cell Lines. Previous published protocols (Isberg and Leong (1990) Cell 60:861-871; Einheber et al. (1993) J. Cell Biol. 123:1223-1236) were slightly modified. Briefly, cells were grown to confluency in 100-mm tissue culture dishes and washed three times with HEPES buffer (20 mM HEPES, 130 mM NaCl, 5 mM KCl, 0.8 mM MgCl2, 1.0 mM CaCl2, pH 7.45). The cells were then incubated with 2 ml of HEPES buffer supplemented with sulfosuccinimidyl hexanoate-conjugated biotin (500 μg/ml; Pierce), which is impermeable to cell membranes (Staros (1982) Biochemistry 21:3950-3), to label cell surface proteins for 30 min at 4° C. The cells were washed three times and lysed in cold radioimmune precipitation buffer plus protease inhibitors (phenylmethylsulfonyl fluoride, 2 mM; leupeptin and aprotinin, 1 μg/ml). The lysate was briefly sonicated on ice before centrifugation at 10,000 rpm for 10 min, and the supernatant was collected for immunoprecipitations.
To determine if the novel alpha6p variant was a degradation product of the alpha6 integrin that would be rapidly cleared from the surface, the surface half-life of both integrins was examined using a biotinylation strategy. […] After 24, 48, or 72 h, the integrins were immunoprecipitated using the GoH3 antibody and analyzed under non-reducing conditions (FIG. 8, panel A).

Row | Molecule | influence on abundance of alpha6p [1] | also measured
1 | CCCCCCCCCCCCCC(=O)O[C@@H]1[C@@H](C)[C@@]2(O)[C@@H](C=C(CO)C[C@]3(O)C(=O)C(C)=C[C@@H]23)[C@@H]2C(C)(C)[C@]12OC(C)=O [12-O-tetradecanoylphorbol-13-acetate] | not influenced | 
2 | CNC(=O)[C@H](Cc1ccccc1)NC(=O)[C@H](CC(C)C)[C@H](CSc1cccs1)C(=O)NO [BB94] | not influenced | 
3 | ecotin: exogenous protease inhibitor | not influenced | 
4 | aprotinin | not influenced | 
5 | [Ca+2].[Cl-].[Cl-] [CaCl2] | not influenced | 
6 | CC(=O)N[C@@H](CC(C)C)C(=O)N[C@@H](CC(C)C)C(=O)N[C@H](C=O)CCCNC(=N)N [leupeptin] | not influenced | 
7 | [Ca+2] [Calcium, calcium] |  | increase of alpha6p integrin protein levels [2]: 3 fold
8 | kallikrein | not influenced | 
9 | B1 |  | surface half-life relative to full-length alpha6 integrin ([3]; surface of DU145H cells): ~3 times; half-life on the cell surface ([3]; surface of DU145H cells, 24, 48, 72 h after biotinylation): ~72 h
